The first assay deals with HCV replicon. Description: Cell-Based HCV Replicon Assay. The settings on record: HCV Replicon assay, EC90 range, Table VI; read-out: EC90. Summed up: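 EC50 and EC90 taken from sigmoid fits of ΔCT (5B minus GAPDH) as the concentrations raising ΔCT by 1 and 3.2 over baseline, via multiplex real-time RT-PCR on lysates after 3 days. Replicon cells at 5000/well; 10 two-fold dilutions from 25–1 μM, 0.5% DMSO, 10% FBS.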
As to `Cc1nc(NC(C)C2CC(F)(F)C2)nc(N[C@@H]2C[C@H](CO)[C@@H](O)[C@H]2O)c1-c1nc2c(C)nccc2s1` (stereo partly shown) [Example 5308], the EC90 (as a rule, the concentration at which the effect reaches the 90% level) was under 500 nM.

Still in this assay, the particulars now being: Hepatitis C virus, 72 h; Table IV; replicon cells, day 3, real time PCR; EC90 = concentration for ΔCT=3.2 over baseline; read-out: EC90.
For the compound `Cc1ccc([C@@H](C)Nc2nc(C)c(-c3nc4c(C)nccc4s3)c(N[C@@H]3C[C@H](CO)[C@@H](O)[C@@]3(C)O)n2)cc1` [compound 3815], the EC90 is 30 nM.

Still in this assay, the particulars now being: Hepatitis C virus; HCV Replicon assay, EC90 range, Table VI; read-out: EC90.
Turning to `Cc1nc(NCCS(=O)(=O)NC(C)(C)C)nc(N[C@@H]2C[C@H](C(C)(C)O)[C@@H](O)[C@H]2O)c1-c1nc2c(C)nccc2s1` [Example 5289], the EC90 is under 500 nM.
Same read-out and setting: under `Cc1nc(NCC2CC2)nc(N[C@@H]2C[C@H](Cc3nccs3)[C@@H](O)[C@H]2O)c1-c1nc2cnccc2s1` [Example 5290] stands under 500 nM.
In the case of `Cc1nc(NC(C)C2CC(F)(F)C2)nc(N[C@@H]2C[C@H](CO)[C@@H](O)[C@H]2O)c1-c1nc2c(C)nccc2s1` (stereo partly shown) [Example 5291], the EC90 is under 500 nM.
As for `CO[C@H]1C[C@@H](CNc2nc(C)c(-c3nc4c(C5CC5)nccc4s3)c(N[C@@H]3C[C@H](CO)[C@@H](O)[C@H]3O)n2)C1` [Example 5292], the EC90 was under 500 nM.
The same measure, in the same setting: under `CCO[C@H]1C[C@@H](CNc2nc(C)c(-c3nc4c(C5CC5)nccc4s3)c(N[C@@H]3C[C@H](CO)[C@@H](O)[C@H]3O)n2)C1` [Example 5293] stands under 500 nM; under `Cc1nc(NCC2CC(C)C2)nc(N[C@@H]2C[C@H](CO)[C@@H](O)[C@H]2O)c1-c1nc2c(C3CC3)nccc2s1` (stereo partly shown) [Example 5294], under 500 nM; under `Cc1nc(NCC2CC2)nc(N[C@@H]2C[C@H](c3nccs3)[C@@H](O)[C@H]2O)c1-c1nc2c(C)nccc2s1` [Example 5295], under 500 nM.
Same read-out and setting: under `CO[C@H]1C[C@H](CNc2nc(C)c(-c3nc4c(C5CC5)nccc4s3)c(N[C@@H]3C[C@H](CO)[C@@H](O)[C@H]3O)n2)C1` [Example 5296] stands under 500 nM; under `Cc1nc(NCC2CC(F)(F)C2)nc(N[C@@H]2C[C@H](CO)C(O)[C@H]2O)c1-c1nc2c(C3CC3)nccc2s1` (stereo partly shown) [Example 5297], under 500 nM.
For the compound `CCO[C@H]1C[C@H](CNc2nc(C)c(-c3nc4c(C5CC5)nccc4s3)c(N[C@@H]3C[C@H](CO)[C@@H](O)[C@H]3O)n2)C1` [Example 5298], the EC90 was under 500 nM.
As to `CO[C@H]1C[C@@H]([C@@H](C)Nc2nc(C)c(-c3nc4c(C5CC5)nccc4s3)c(N[C@@H]3C[C@H](CO)[C@@H](O)[C@H]3O)n2)C1` [Example 5299], the EC90 was under 500 nM.
Same read-out and setting: under `Cc1nc(NC(C)C2CC(F)(F)C2)nc(N[C@@H]2C[C@H](CO)C(O)[C@H]2O)c1-c1nc2c(C3CC3)nccc2s1` (stereo partly shown) [Example 5300] stands under 500 nM; under `Cc1nc(NCC2CC3(CC3)C2)nc(N[C@@H]2C[C@H](CO)[C@@H](O)[C@H]2O)c1-c1nc2c(C3CC3)nccc2s1` [Example 5301], under 500 nM; under `CO[C@H]1C[C@H]([C@@H](C)Nc2nc(C)c(-c3nc4c(C)nccc4s3)c(N[C@@H]3C[C@H](CO)[C@@H](O)[C@H]3O)n2)C1` [Example 5302], under 500 nM.
The same measure, in the same setting: under `CO[C@H]1C[C@H]([C@@H](C)Nc2nc(C)c(-c3nc4c(C5CC5)nccc4s3)c(N[C@@H]3C[C@H](CO)[C@@H](O)[C@H]3O)n2)C1` [Example 5303] stands under 500 nM.
For `Cc1nc(N)nc(N[C@@H]2C[C@H](CC(C)(C)O)[C@@H](O)[C@H]2O)c1-c1nc2c(C)nccc2s1` [Example 5304], the EC90 was under 500 nM.
For `Cc1nc(NC(C)C2CC(F)(F)C2)nc(N[C@@H]2C[C@H](CO)[C@@H](O)[C@H]2O)c1-c1nc2c(C3CC3)nccc2s1` (stereo partly shown) [Example 5305], the EC90 was in the range of 500 to 5000 nM.
Consider `CCO[C@H]1C[C@H](CNc2nc(C)c(-c3nc4c(C)nccc4s3)c(N[C@@H]3C[C@H](CC(C)(C)O)[C@@H](O)[C@H]3O)n2)C1` [Example 5306], for which the EC90 was under 500 nM.
`COCCNc1nc(C)c(-c2nc3c(C)nccc3s2)c(N[C@@H]2C[C@H](CC(C)(C)O)[C@@H](O)[C@H]2O)n1` [Example 5307]: the EC90 was under 500 nM.
Same read-out and setting: under `Cc1nc(NCCSC(C)(C)C)nc(N[C@@H]2C[C@H](CC(C)(C)O)[C@@H](O)[C@H]2O)c1-c1nc2c(C)nccc2s1` [Example 5309] stands under 500 nM; under `COC[C@@H](C)Nc1nc(C)c(-c2nc3c(C)nccc3s2)c(N[C@@H]2C[C@H](CC(C)(C)O)[C@@H](O)[C@H]2O)n1` [Example 5310], under 500 nM; under `CO[C@H](C)CNc1nc(C)c(-c2nc3c(C)nccc3s2)c(N[C@@H]2C[C@H](CC(C)(C)O)[C@@H](O)[C@H]2O)n1` [Example 5311], under 500 nM.
Regarding `Cc1nc(NCC2CC(F)(F)C2)nc(N[C@@H]2C[C@H](CC(C)(C)O)[C@@H](O)[C@H]2O)c1-c1nc2c(C)nccc2s1` [Example 5312], the EC90 was under 500 nM.

Source of the values: patent publication US9433621B2, “Substituted pyridine and pyrimidine derivatives and their use in treating viral infections” (Merck Sharp & Dohme Corp., priority 2010, dated 2016).
